Laboratory results published in patent US20050197350A1, “Novel quinoline, tetrahydroquinazoline, and pyrimidine derivatives and methods of treatment related to the use thereof” (TAISHO PHARMACEUTICAL CO., LTD., priority 2003, published 2005).

The compounds below were run on MCH receptors (assay: MCH receptor activity class (method not given)). Details: class by percent of control at 10^-7 M or IC50.
`CN(C)c1ccnc(N[C@H]2CC[C@@H](NC(=O)COCc3ccccc3)CC2)n1` [compound 313] was tested, and the class was 3 (Class 3 The value of percent of control at 10^−7 M was more than 60% or the value of IC50 was more than 200 nM.).
For `CN(C)c1ccnc(N[C@H]2CC[C@@H](NC(=O)COc3ccc(Cl)cc3)CC2)n1` [compound 314], the class was 1 (Class 1: The value of percent of control at 10^−7 M was less than 40% or the value of IC50 was less than 50 nM.).
For `CN(C)c1ccnc(N[C@H]2CC[C@@H](NC(=O)C3CCCCC3)CC2)n1` [compound 315], the class was 3 (Class 3 The value of percent of control at 10^−7 M was more than 60% or the value of IC50 was more than 200 nM.).
For `Cc1onc(-c2ccccc2Cl)c1C(=O)N[C@H]1CC[C@@H](Nc2nccc(N(C)C)n2)CC1` [compound 316], the class was 3 (Class 3 The value of percent of control at 10^−7 M was more than 60% or the value of IC50 was more than 200 nM.).
In the case of `CN(C)c1ccnc(N[C@H]2CC[C@@H](NC(=O)C3(c4ccc(Cl)cc4)CCCC3)CC2)n1` [compound 317], the class is reported as 2 (Class 2: The value of percent of control at 10^−7 M was from 40% to 60% or the value of IC′50 was from 50 nM to 200 nM.).
For `Cc1onc(-c2c(F)cccc2Cl)c1C(=O)N[C@H]1CC[C@@H](Nc2nccc(N(C)C)n2)CC1` [compound 318], the class was 2 (Class 2: The value of percent of control at 10^−7 M was from 40% to 60% or the value of IC′50 was from 50 nM to 200 nM.).
In the case of `CC(C)S(=O)(=O)c1csc(C(=O)N[C@H]2CC[C@@H](Nc3nccc(N(C)C)n3)CC2)c1Cl` [compound 319], the class is reported as 3 (Class 3 The value of percent of control at 10^−7 M was more than 60% or the value of IC50 was more than 200 nM.).
For `CN(C)c1ccnc(N[C@H]2CC[C@@H](NC(=O)c3ccc([N+](=O)[O-])cc3Cl)CC2)n1` [compound 320], the class was 3 (Class 3 The value of percent of control at 10^−7 M was more than 60% or the value of IC50 was more than 200 nM.).
`Cc1cc(C(=O)N[C@H]2CC[C@@H](Nc3nccc(N(C)C)n3)CC2)n(C)n1` [compound 321] was tested, and the class was 3 (Class 3 The value of percent of control at 10^−7 M was more than 60% or the value of IC50 was more than 200 nM.).
In the case of `COc1ccc(C(=O)N[C@H]2CC[C@@H](Nc3nccc(N(C)C)n3)CC2)cc1OC` [compound 322], the class is reported as 3 (Class 3 The value of percent of control at 10^−7 M was more than 60% or the value of IC50 was more than 200 nM.).
`CN(C)c1ccnc(N[C@H]2CC[C@@H](NC(=O)c3cccc(F)c3)CC2)n1` [compound 323] was tested, and the class was 3 (Class 3 The value of percent of control at 10^−7 M was more than 60% or the value of IC50 was more than 200 nM.).
With `CN(C)c1ccnc(N[C@H]2CC[C@@H](NC(=O)c3ccc(F)c(C(F)(F)F)c3)CC2)n1` [compound 324, N-(cis-4-{[4-(dimethylamino)pyrimidin-2-yl]amino}cyclohexyl)-4-fluoro-3-(trifluoromethyl)benzamide] the class was 1 (Class 1: The value of percent of control at 10^−7 M was less than 40% or the value of IC50 was less than 50 nM.).
For `Cc1nn(-c2ccccc2)nc1C(=O)N[C@H]1CC[C@@H](Nc2nccc(N(C)C)n2)CC1` [compound 325, N-(cis-4-{[4-(dimethylamino)pyrimidin-2-yl]amino}cyclohexyl)-5-methyl-2-phenyl-2H-1,2,3-triazole-4-carboxamide], the class was 1 (Class 1: The value of percent of control at 10^−7 M was less than 40% or the value of IC50 was less than 50 nM.).
`COc1ccc(Oc2ccc([N+](=O)[O-])cc2C(=O)N[C@H]2CC[C@@H](Nc3nccc(N(C)C)n3)CC2)cc1` [compound 326, N-(cis-4-{[4-(dimethylamino)pyrimidin-2-yl]amino}cyclohexyl)-2-(4-methoxyphenoxy)-5-nitrobenzamide] was tested, and the class was 1 (Class 1: The value of percent of control at 10^−7 M was less than 40% or the value of IC50 was less than 50 nM.).
`CN(C)c1ccnc(N[C@H]2CC[C@@H](NC(=O)c3cccc4ccccc34)CC2)n1` [compound 327] was tested, and the class was 3 (Class 3 The value of percent of control at 10^−7 M was more than 60% or the value of IC50 was more than 200 nM.).
`CN(C)c1ccnc(N[C@H]2CC[C@@H](NC(=O)c3ccc4ccccc4c3)CC2)n1` [compound 328] was tested, and the class was 3 (Class 3 The value of percent of control at 10^−7 M was more than 60% or the value of IC50 was more than 200 nM.).
With `CN(C)c1ccnc(N[C@H]2CC[C@@H](NC(=O)c3ccc([N+](=O)[O-])o3)CC2)n1` [compound 329] the class was 3 (Class 3 The value of percent of control at 10^−7 M was more than 60% or the value of IC50 was more than 200 nM.).
For `CN(C)c1ccnc(N[C@H]2CC[C@@H](NC(=O)COc3ccccc3)CC2)n1` [compound 330, N-(cis-4-{[4-(dimethylamino)pyrimidin-2-yl]amino}cyclohexyl)-2-phenoxyacetamide], the class was 2 (Class 2: The value of percent of control at 10^−7 M was from 40% to 60% or the value of IC′50 was from 50 nM to 200 nM.).
`CN(C)c1ccnc(N[C@H]2CC[C@@H](NC(=O)COc3ccccc3[N+](=O)[O-])CC2)n1` [compound 331] was tested, and the class was 3 (Class 3 The value of percent of control at 10^−7 M was more than 60% or the value of IC50 was more than 200 nM.).
For `CN(C)c1ccnc(N[C@H]2CC[C@@H](NC(=O)c3cnc4ccccc4n3)CC2)n1` [compound 332], the class was 1 (Class 1: The value of percent of control at 10^−7 M was less than 40% or the value of IC50 was less than 50 nM.).
For `COc1cc(C(=O)N[C@H]2CC[C@@H](Nc3nccc(N(C)C)n3)CC2)cc(OC)c1OC` [compound 333], the class was 3 (Class 3 The value of percent of control at 10^−7 M was more than 60% or the value of IC50 was more than 200 nM.).
With `CN(C)c1ccnc(N[C@H]2CC[C@@H](NC(=O)c3cccc(C(F)(F)F)c3)CC2)n1` [compound 334, N-(cis-4-{[4-(dimethylamino)pyrimidin-2-yl]amino}cyclohexyl)-3-(trifluoromethyl)benzamide] the class was 2 (Class 2: The value of percent of control at 10^−7 M was from 40% to 60% or the value of IC′50 was from 50 nM to 200 nM.).
In the case of `CN(C)c1ccnc(N[C@H]2CC[C@@H](NC(=O)c3ccc(C(F)(F)F)cc3)CC2)n1` [compound 335], the class is reported as 3 (Class 3 The value of percent of control at 10^−7 M was more than 60% or the value of IC50 was more than 200 nM.).
For `CN(C)c1ccnc(N[C@H]2CC[C@@H](NC(=O)c3ccccc3OC(F)(F)F)CC2)n1` [compound 336], the class was 3 (Class 3 The value of percent of control at 10^−7 M was more than 60% or the value of IC50 was more than 200 nM.).
In the case of `COc1cc(COC(=O)N[C@H]2CC[C@@H](Nc3nccc(N(C)C)n3)CC2)c([N+](=O)[O-])cc1OC` [compound 337], the class is reported as 3 (Class 3 The value of percent of control at 10^−7 M was more than 60% or the value of IC50 was more than 200 nM.).
With `CN(C)c1ccnc(N[C@H]2CC[C@@H](NC(=O)CCCOc3ccccc3)CC2)n1` [compound 338] the class was 3 (Class 3 The value of percent of control at 10^−7 M was more than 60% or the value of IC50 was more than 200 nM.).
For `COc1ccc(Br)c(C(=O)N[C@H]2CC[C@@H](Nc3nccc(N(C)C)n3)CC2)c1` [compound 339], the class was 3 (Class 3 The value of percent of control at 10^−7 M was more than 60% or the value of IC50 was more than 200 nM.).
With `CN(C)c1ccnc(N[C@H]2CC[C@@H](NC(=O)COc3c(F)c(F)c(F)c(F)c3F)CC2)n1` [compound 340, N-(cis-4-{[4-(dimethylamino)pyrimidin-2-yl]amino}cyclohexyl)-2-(pentafluorophenoxy)acetamide] the class was 2 (Class 2: The value of percent of control at 10^−7 M was from 40% to 60% or the value of IC′50 was from 50 nM to 200 nM.).
`COc1ccc(CC(=O)N[C@H]2CC[C@@H](Nc3nccc(N(C)C)n3)CC2)cc1OC` [compound 341] was tested, and the class was 3 (Class 3 The value of percent of control at 10^−7 M was more than 60% or the value of IC50 was more than 200 nM.).
For `CN(C)c1ccnc(N[C@H]2CC[C@@H](NC(=O)c3ccc(F)c(F)c3F)CC2)n1` [compound 342], the class was 3 (Class 3 The value of percent of control at 10^−7 M was more than 60% or the value of IC50 was more than 200 nM.).
`CN(C)c1ccnc(N[C@H]2CC[C@@H](NC(=O)C3CCCC3)CC2)n1` [compound 343] was tested, and the class was 3 (Class 3 The value of percent of control at 10^−7 M was more than 60% or the value of IC50 was more than 200 nM.).
In the case of `CN(C)c1ccnc(N[C@H]2CC[C@@H](NC(=O)c3ccc(F)cc3F)CC2)n1` [compound 344], the class is reported as 3 (Class 3 The value of percent of control at 10^−7 M was more than 60% or the value of IC50 was more than 200 nM.).
For `CN(C)c1ccnc(N[C@H]2CC[C@@H](NC(=O)CCc3ccccc3)CC2)n1` [compound 345], the class was 3 (Class 3 The value of percent of control at 10^−7 M was more than 60% or the value of IC50 was more than 200 nM.).
With `CN(C)c1ccnc(N[C@H]2CC[C@@H](NC(=O)c3cc(F)c(F)c(F)c3F)CC2)n1` [compound 346] the class was 3 (Class 3 The value of percent of control at 10^−7 M was more than 60% or the value of IC50 was more than 200 nM.).
With `CCOc1ccc2ccccc2c1C(=O)N[C@H]1CC[C@@H](Nc2nccc(N(C)C)n2)CC1` [compound 347] the class was 3 (Class 3 The value of percent of control at 10^−7 M was more than 60% or the value of IC50 was more than 200 nM.).
With `CN(C)c1ccnc(N[C@H]2CC[C@@H](NC(=O)c3c(F)c(F)c(F)c(F)c3F)CC2)n1` [compound 348] the class was 3 (Class 3 The value of percent of control at 10^−7 M was more than 60% or the value of IC50 was more than 200 nM.).
`CN(C)c1ccnc(N[C@H]2CC[C@@H](NC(=O)c3ccc(SC(F)(F)F)cc3)CC2)n1` [compound 349] was tested, and the class was 3 (Class 3 The value of percent of control at 10^−7 M was more than 60% or the value of IC50 was more than 200 nM.).
In the case of `CN(C)c1ccnc(N[C@H]2CC[C@@H](NC(=O)c3sc(Cl)c(Cl)c3Cl)CC2)n1` [compound 350], the class is reported as 3 (Class 3 The value of percent of control at 10^−7 M was more than 60% or the value of IC50 was more than 200 nM.).
`CN(C)c1ccnc(N[C@H]2CC[C@@H](NC(=O)COc3cccc(Cl)c3)CC2)n1` [compound 351, 2-(3-chlorophenoxy)-N-(cis-4-{[4-(dimethylamino)pyrimidin-2-yl]amino}cyclohexyl)acetamide] was tested, and the class was 1 (Class 1: The value of percent of control at 10^−7 M was less than 40% or the value of IC50 was less than 50 nM.).
